Source: ChEMBL document CHEMBL5550143, “Modulation of proteasome subunit selectivity of syringolins” (Bioorg Med Chem, 2024)
pIC50, pKi: −log10 of the molar value. Each block holds one compound with its values, some of them ahead of it. Activity calls are given as the source filed them. No cut-off for these calls is given here.

How the values were obtained:
LNCaP = experiment: Cytotoxicity against human LNCaP cells incubated for 72 hrs by CCK8 assay
DU-145 = experiment: Cytotoxicity against human DU-145 cells incubated for 72 hrs by CCK8 assay; settings: DU-145, 72 h
[1] = biological target: T1, Proteasome Macropain subunit MB1 (Homo sapiens, UniProt P28074); experiment: Inhibition of 20S proteasome beta-5 in human erythrocytes using Suc-LLVY-AMC as substrate by AK-740 assay; parameters: species or system Erythrocyte
T1 sequence (P28074 whole entry): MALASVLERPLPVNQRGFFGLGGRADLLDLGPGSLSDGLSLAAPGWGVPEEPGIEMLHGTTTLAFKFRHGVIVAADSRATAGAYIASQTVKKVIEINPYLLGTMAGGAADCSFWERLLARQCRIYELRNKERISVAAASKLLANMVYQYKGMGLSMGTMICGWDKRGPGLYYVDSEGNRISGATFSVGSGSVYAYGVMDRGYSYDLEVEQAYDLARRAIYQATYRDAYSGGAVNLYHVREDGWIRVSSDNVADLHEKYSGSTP

MM1.S = experiment: Cytotoxicity against human MM1.S cells; type: functional, cell-based
[2] = biological target: T2, Proteasome component C5 (Homo sapiens) (UniProt P20618); experiment: Inhibition of 20S proteasome beta-1 (unknown origin) upto 150 uM
T2 sequence (whole entry): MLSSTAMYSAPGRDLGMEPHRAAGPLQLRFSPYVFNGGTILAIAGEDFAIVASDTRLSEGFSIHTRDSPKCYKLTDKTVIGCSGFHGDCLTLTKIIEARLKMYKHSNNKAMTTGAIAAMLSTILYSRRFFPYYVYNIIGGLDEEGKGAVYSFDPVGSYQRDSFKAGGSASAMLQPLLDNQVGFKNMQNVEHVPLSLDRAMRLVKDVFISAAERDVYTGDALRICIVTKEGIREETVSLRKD

SMILES: CCCCCCCCCC(=O)N[C@@H](Cc1ccccc1)C(=O)N[C@H]1CCCCNC(=O)/C=C/[C@H](Cc2ccc(CC(=N)N)cc2)NC1=O
pIC50 (LNCaP): < 6.00
pIC50 (DU-145): < 6.00

SMILES: CCCCCCCCCC(=O)N[C@@H](Cc1ccccc1)C(=O)N[C@H]1CCCCNC(=O)/C=C/[C@H](Cc2ccc(N(C)C)cc2)NC1=O
pIC50 (LNCaP): 7.03
pIC50 (DU-145): 6.99

SMILES: CCCCCCCCCC(=O)N[C@@H](Cc1ccccc1)C(=O)N[C@H]1CCCCNC(=O)/C=C/[C@H](CC(=O)O)NC1=O
pIC50 (LNCaP): < 6.00
pIC50 (DU-145): < 6.00

SMILES: CCCCCCCCCC(=O)N[C@@H](Cc1ccccc1)C(=O)N[C@H]1CCCCNC(=O)/C=C/[C@H](Cc2ccc(CN(C)C)cc2)NC1=O
pIC50 (LNCaP): < 6.00
pIC50 (DU-145): < 6.00

SMILES: CCCCCCCCCC(=O)N[C@@H](Cc1ccccc1)C(=O)N[C@H]1CCCCNC(=O)/C=C/[C@H](Cc2ccc([N+](=O)[O-])cc2)NC1=O
pIC50 (LNCaP): < 6.00
pIC50 (DU-145): < 6.00

SMILES: CCCCCCCCCC(=O)N[C@@H](Cc1ccccc1)C(=O)N[C@H]1CCCCNC(=O)/C=C/[C@H](Cc2ccc(NC(=N)N)cc2)NC1=O
pIC50 (LNCaP): < 6.00
pIC50 (DU-145): < 6.00

SMILES: CCCCCCCCCC(=O)N[C@@H](Cc1ccccc1)C(=O)N[C@H]1CCCCNC(=O)/C=C/[C@H](C(C)C)NC1=O
pIC50 (LNCaP): 7.04
pIC50 (DU-145): 6.93

SMILES: CCCCCCCCCC(=O)N[C@@H](Cc1ccccc1)C(=O)N[C@H]1CCCCNC(=O)/C=C/[C@H](Cc2ccc(C(N)=O)cc2)NC1=O
pIC50 (LNCaP): < 6.00
pIC50 (DU-145): < 6.00

SMILES: CCCCCCCCCC(=O)N[C@@H](Cc1ccccc1)C(=O)N[C@H]1CCCCNC(=O)/C=C/[C@H](Cc2ccc(CN)cc2)NC1=O
pIC50 (LNCaP): < 6.00
pIC50 (DU-145): < 6.00

pKi [1]: < 5.00
SMILES: CCCCCCCCCC(=O)N[C@@H](Cc1ccccc1)C(=O)N[C@H]1CCCCNC(=O)/C=C/[C@H](CCC(=O)O)NC1=O
pIC50 (LNCaP): < 6.00
pIC50 (DU-145): < 6.00

SMILES: CCCCCCCCCC(=O)N[C@@H](Cc1ccccc1)C(=O)N[C@H]1CCCCNC(=O)/C=C/[C@H](Cc2ccc(O)cc2)NC1=O
pIC50 (LNCaP): 6.24
pIC50 (DU-145): < 6.00

SMILES: CCCCCCCCCC(=O)N[C@@H](Cc1ccccc1)C(=O)N[C@H]1CCCCNC(=O)/C=C/[C@H](Cc2ccc(NC)cc2)NC1=O
pIC50 (LNCaP): 6.99
pIC50 (DU-145): 6.85

SMILES: CC(C)[C@H](NC(=O)N[C@H](C(=O)N[C@H]1/C=C/CCNC(=O)/C=C/[C@H](C(C)C)NC1=O)C(C)C)C(=O)O
pIC50 (MM1.S): 5.07

SMILES: CCCCCCCCCC(=O)N[C@@H](Cc1ccccc1)C(=O)N[C@H]1CCCCNC(=O)/C=C/[C@H](Cc2ccc(B(O)O)cc2)NC1=O
pIC50 (LNCaP): 6.05
pIC50 (DU-145): 6.14

SMILES: CCCCCCCCCC(=O)N[C@@H](Cc1ccccc1)C(=O)N[C@H]1CCCCNC(=O)/C=C/[C@H](Cc2ccc(C#N)cc2)NC1=O
pIC50 (LNCaP): 6.04
pIC50 (DU-145): < 6.00

SMILES: CCCCCCCCCC(=O)N[C@@H](Cc1ccccc1)C(=O)N[C@H]1CCCCNC(=O)/C=C/[C@H](Cc2ccc(N)cc2)NC1=O
pIC50 (LNCaP): 6.74
pIC50 (DU-145): 6.54

SMILES: CCCCCCCCCC(=O)N[C@@H](Cc1ccccc1)C(=O)N[C@H]1CCCCNC(=O)/C=C/[C@H](Cc2ccc(OC)cc2)NC1=O
pIC50 (LNCaP): 6.93
pIC50 (DU-145): 6.31

SMILES: CCCCCCCCCC(=O)N[C@@H](Cc1ccccc1)C(=O)N[C@H]1CCCCNC(=O)/C=C/[C@H](Cc2ccccc2)NC1=O
pIC50 (LNCaP): 7.36
pIC50 (DU-145): 7.31

SMILES: CC(C)[C@H](NC(=O)N[C@H](C(=O)N[C@H]1CCCCNC(=O)/C=C/[C@H](C(C)C)NC1=O)C(C)C)C(=O)O
inhibition [2]: inactive

SMILES: CCCCCCCCCC(=O)N[C@@H](Cc1ccccc1)C(=O)N[C@H]1CCCCNC(=O)/C=C/[C@H](Cc2ccc(C(=O)O)cc2)NC1=O
pIC50 (LNCaP): < 6.00
pIC50 (DU-145): < 6.00
